Results: ChEMBL document CHEMBL1149268, “Structure-based design of potent and selective cell-permeable inhibitors of human beta-secretase (BACE-1)” (J Med Chem, 2004)
Activity calls are given as the source filed them. The calls are words filed in the database; no cut-off is given here.

What was measured:
[1] = molecular target: T1, Beta-secretase 2 (Homo sapiens, UniProt Q9Y5Z0); experiment: (§1) Inhibition of BACE2
T1 sequence (Q9Y5Z0 whole entry): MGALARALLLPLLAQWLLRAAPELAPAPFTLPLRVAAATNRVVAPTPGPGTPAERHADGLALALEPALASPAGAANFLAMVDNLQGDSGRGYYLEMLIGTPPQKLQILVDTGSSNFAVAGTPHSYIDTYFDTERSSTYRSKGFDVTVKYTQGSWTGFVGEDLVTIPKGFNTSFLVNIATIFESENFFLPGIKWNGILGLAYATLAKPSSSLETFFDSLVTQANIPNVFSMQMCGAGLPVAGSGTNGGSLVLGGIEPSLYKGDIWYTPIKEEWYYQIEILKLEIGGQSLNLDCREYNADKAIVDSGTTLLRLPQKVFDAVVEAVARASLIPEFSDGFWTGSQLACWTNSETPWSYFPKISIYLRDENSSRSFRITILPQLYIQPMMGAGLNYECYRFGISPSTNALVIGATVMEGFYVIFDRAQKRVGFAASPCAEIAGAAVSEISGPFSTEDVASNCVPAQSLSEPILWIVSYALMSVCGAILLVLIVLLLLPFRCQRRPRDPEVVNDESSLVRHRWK

[2] = molecular target: T2, Renin (Homo sapiens, UniProt P00797); experiment: Inhibition of renin
T2 sequence (P00797 whole entry): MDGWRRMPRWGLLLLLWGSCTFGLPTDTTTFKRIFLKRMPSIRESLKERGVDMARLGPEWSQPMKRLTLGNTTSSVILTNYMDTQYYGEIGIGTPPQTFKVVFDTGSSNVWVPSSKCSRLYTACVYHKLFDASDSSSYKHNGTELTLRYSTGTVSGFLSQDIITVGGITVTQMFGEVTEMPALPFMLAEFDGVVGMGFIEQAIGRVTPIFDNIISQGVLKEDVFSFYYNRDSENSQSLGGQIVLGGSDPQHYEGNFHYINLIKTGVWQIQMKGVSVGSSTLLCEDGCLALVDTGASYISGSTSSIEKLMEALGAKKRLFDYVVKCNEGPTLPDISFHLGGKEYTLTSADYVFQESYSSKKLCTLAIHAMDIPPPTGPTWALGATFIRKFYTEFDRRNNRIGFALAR

[3] = molecular target: T3, Beta-secretase 1 (Homo sapiens, UniProt P56817)
[4] = molecular target: T3, Beta-secretase 1; remark: listed apart in the source
[5] = molecular target: T4, Beta-secretase 2 (Homo sapiens) (UniProt Q9Y5Z0); experiment: as §1
T4 sequence (whole entry): T1 sequence (Q9Y5Z0 whole entry)

T3 sequence (P56817 whole entry): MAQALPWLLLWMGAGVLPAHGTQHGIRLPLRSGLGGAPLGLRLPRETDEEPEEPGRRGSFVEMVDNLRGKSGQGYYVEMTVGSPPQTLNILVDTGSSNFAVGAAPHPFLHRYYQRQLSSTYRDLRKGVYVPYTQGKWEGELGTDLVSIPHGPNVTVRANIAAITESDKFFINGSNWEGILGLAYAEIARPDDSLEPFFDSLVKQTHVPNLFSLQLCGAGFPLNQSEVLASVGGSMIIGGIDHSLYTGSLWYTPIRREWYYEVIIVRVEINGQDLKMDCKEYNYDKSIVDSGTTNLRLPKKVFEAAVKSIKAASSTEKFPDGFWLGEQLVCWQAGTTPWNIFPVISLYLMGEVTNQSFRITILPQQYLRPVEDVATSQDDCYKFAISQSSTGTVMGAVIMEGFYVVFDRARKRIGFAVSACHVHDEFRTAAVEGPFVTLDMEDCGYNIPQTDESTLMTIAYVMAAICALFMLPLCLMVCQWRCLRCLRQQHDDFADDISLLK

Row | IC50 [1] [nM] | IC50 [2] [nM] | IC50 [3] [nM] | IC50 [4] [nM] | Activity [5] | SMILES
1 | 443 | > 50000 | 23 | 5390 | – | C[C@@H](NC(=O)c1cc(C(=O)N[C@@H](Cc2ccccc2)[C@H](O)CN)cc(N(C)S(C)(=O)=O)c1)c1ccc(F)cc1
2 | 360 | > 50000 | 41 | 25 | – | CC(C)S(=O)(=O)N(C)c1cc(C(=O)N[C@@H](Cc2ccccc2)[C@H](O)CNC2CC2)cc(C(=O)N[C@H](C)c2ccccc2)c1
3 | 210 | > 50000 | 63 | 1180 | – | C[C@@H](NC(=O)c1cc(NS(C)(=O)=O)cc(C(=O)N[C@@H](Cc2ccccc2)C(O)CNC2CC2)c1)c1ccc(F)cc1 (some centres undefined)

Further lines, the compound ahead of its results:

Row | SMILES | IC50 [1] [nM] | IC50 [2] [nM] | IC50 [3] [nM] | IC50 [4] [nM] | Activity [5]
4 | C[C@@H](NC(=O)c1cc(C(=O)N[C@@H](Cc2ccccc2)[C@H](O)CNC2CC2)cc(N(C)S(=O)(=O)N(C)C)c1)c1ccccc1 | 110 | > 50000 | 14 | 9 | –
5 | C[C@@H](NC(=O)c1cc(C(=O)N[C@@H](Cc2ccccc2)C(O)CNC2CC2)cc(N(C)S(C)(=O)=O)c1)c1ccccc1 (some centres undefined) | – | > 50000 | – | – | –
6 | C[C@@H](NC(=O)c1cc(C(=O)N[C@@H](Cc2ccccc2)[C@H](O)CNC2CC2)cc(N(C)S(C)(=O)=O)c1)c1ccc(F)cc1 | 69 | > 10000 | 10 | 19 | –
7 | C[C@@H](NC(=O)c1cc(C(=O)N[C@@H](Cc2ccccc2)[C@H](O)CNC(C)(C)C)cc(N(C)S(C)(=O)=O)c1)c1ccc(F)cc1 | – | > 50000 | 15 | 2120 | inactive
8 | CCNC[C@@H](O)[C@H](Cc1ccccc1)NC(=O)c1cc(C(=O)N[C@H](C)c2ccc(F)cc2)cc(N(C)S(C)(=O)=O)c1 | 260 | > 50000 | 15 | 396 | –
